According to paper PMC12040169 (PLOS Biology, 2025):

Assay: in vitro
Conditions: human, hela cells, % viability

First: CC(C)CC(=O)N1CCN(Cc2nc3sc4c(c3c(=O)[nH]2)CCC4)CC1 [CBK305014]
Second: O=C(O)CCNc1nc(Cc2ccccc2)nc2sc3c(c12)CCCC3 [CBK265345]
The viability at 28.5 h, 10 µM of the first is lower: 86.4% for the first, 93.4% for the second.

First: CCCC(=O)NCc1ccc(-c2cc(CN(C)C)n(C)n2)cc1 [CBK282007]
Second: COc1cc(Br)c(OC)c(C(=O)N(C)Cc2cnn(C)c2)c1 [CBK244011]
The viability at 28.5 h, 10 µM of the first is lower: 98.4% for the first, 102% for the second.

First: C=CCN1C(=O)CC2(C1=O)C(=O)N(CCCn1c(=O)n(C)c3ccccc31)c1ccc(Cl)cc12 (centres unmarked) [CBK075411]
Second: Cn1c(=O)n(CC(=O)N2CCC(C(=O)NC(c3ccccc3)c3ccccn3)CC2)c2ccccc21 (centres unmarked) [CBK060494]
The viability at 28.5 h, 10 µM of the first is lower: 94.6% for the first, 96% for the second.

First: COc1cccc(C(=O)N2CCC(Cc3ccccc3-c3ccccc3C)(C(N)=O)CC2)c1 [CBK285722]
Second: COc1ccc(C(=O)N2CCC3(CCCN(C(=O)c4ccc5ncccc5c4)C3)C2)cc1OC (centres unmarked) [CBK131656]
The viability at 28.5 h, 10 µM of the first is higher: 94.5% for the first, 92.4% for the second.

Going from `COc1ccc(SCC(=O)O)cc1` [CBK111455] to `COc1ccc(CCNC(=O)CSC(C)C(=O)O)cc1` (centres unmarked) [CBK297493], the viability at 28.5 h, 10 µM falls from 93.7% to 81.4%.

First: FC(F)(F)c1ccnc(SCCc2ccccn2)c1 [CBK103709]
Second: Cc1cc(C(=O)NC(C)c2ccccn2)c2ccccc2n1 (centres unmarked) [CBK281826]
The viability at 28.5 h, 10 µM of the first is higher: 105% for the first, 96.9% for the second.

Going from `COc1ccc([C@H]2CN(Cc3ccccc3)[C@@H]3CCN(C(=O)Cc4ccccc4)C[C@H]23)cc1` [CBK286285] to `CNC(=O)[C@@H]1CN(Cc2ccccc2)C[C@H]1C(=O)c1ccc(F)cc1` [CBK282902], the viability at 28.5 h, 10 µM rises from 108% to 110%.

Going from `CCOc1cc(O)c(-c2nc(N)ncc2-c2ccc3c(c2)OCCO3)cc1CC` [CBK288174] to `CCN(CC)Cc1c(O)ccc2cc(-c3nc4ccccc4[nH]3)c(=O)oc12` [CBK263824], the viability at 28.5 h, 10 µM rises from 94.7% to 102%.

Going from `COc1cc(Cl)nnc1Cl` [CBK018956] to `COc1ccc(Cl)cc1NC(=S)NCCn1cc(Cl)cn1` [CBK267063], the viability at 28.5 h, 10 µM falls from 108% to 89.8%.

Going from `CCOC(=O)C1CCCN(CCC(=O)Nc2ccccc2)C1` (centres unmarked) [CBK264192C] to `O=C(CC(C(=O)O)N1CCOCC1)Nc1ccccc1` (centres unmarked) [CBK267008], the viability at 28.5 h, 10 µM rises from 91.7% to 111%.

Compared with `O=C(O)c1ccc(NS(=O)(=O)c2cccc([N+](=O)[O-])c2)cc1O` [CBK200022], `Cc1ccc(S(=O)(=O)c2cccc(S(N)(=O)=O)c2)cc1S(N)(=O)=O` [CBK264535] is higher in viability at 28.5 h, 10 µM: 84.8% for the first, 91.7% for the second.

First: CCCSc1nnc(-c2c(Cl)c(CC)nn2C)s1 [CBK026135]
Second: CCCc1c(C)nc2ccccc2c1SCC(=O)O [CBK263558]
The viability at 28.5 h, 10 µM of the first is higher: 104% for the first, 93.7% for the second.

Going from `CC(=O)Nc1ccc(S(=O)(=O)N2CCC(n3c(=O)[nH]c4ccccc43)CC2)cc1` [CBK149696] to `Cc1ccc(OCC(=O)Nc2ccccc2N2CCN(S(C)(=O)=O)CC2)cc1` [CBK268722], the viability at 28.5 h, 10 µM falls from 92.3% to 84%.

First: CCCn1ccc(CNCC(c2ccnn2C)C(C)C)c1 (centres unmarked) [CBK304861]
Second: CCN1CCCC1CN(Cc1cccs1)Cc1cnc(C)n1C (centres unmarked) [CBK282603]
The viability at 28.5 h, 10 µM of the first is lower: 87% for the first, 91.5% for the second.

First: Cc1nn(-c2ccc(F)cc2)c2[nH]c(=O)c(CNC(C)C)cc12 [CBK283119]
Second: CC(Oc1ccc(F)cc1)C(=O)N1CCCc2c(cnn2C)C1 (centres unmarked) [CBK285230]
The viability at 28.5 h, 10 µM of the first is higher: 95.7% for the first, 82.1% for the second.

First: Cc1ccc(C(=O)NCCN2CCOCC2)c(N2CCOCC2)n1 [CBK106201]
Second: Cc1cccc(-c2csc3c(=O)[nH]c(N4CCC(C(=O)NCCN5CCOCC5)CC4)nc23)c1 [CBK215640]
The viability at 28.5 h, 10 µM of the first is lower: 87% for the first, 105% for the second.

Compared with `NNc1nc(-c2ccccc2)cc(-c2ccc(Br)cc2)n1` [CBK261795], `Cc1ccc(C(=O)O)cc1NC(=S)NC(=O)c1ccc(-c2ccccc2)cc1` [CBK264997] is lower in viability at 28.5 h, 10 µM: 107% for the first, 92.7% for the second.

Compared with `Cc1noc(NS(=O)(=O)c2ccc(NC(=O)c3cc(-c4ccccc4Cl)nc4ccccc34)cc2)c1C` [CBK296108], `Cc1ccc(S(=O)(=O)Nc2ccccc2CNc2ccc(Br)cc2)cc1` [CBK264214] is higher in viability at 28.5 h, 10 µM: 80.6% for the first, 94.5% for the second.

Going from `Cn1cccc1C(=O)NCCNC(=O)c1cc2ccccc2[nH]1` [CBK297894] to `CCNC(=O)c1cc2c(=O)n3ccccc3nc2n(C)c1=N` [CBK287762], the viability at 28.5 h, 10 µM rises from 87.7% to 90.7%.

Going from `O=C(O)CSc1nc2ccccc2[nH]1` [CBK225127] to `O=c1[nH]nc(SCc2ccccc2Cl)c(=S)[nH]1` [CBK027795], the viability at 28.5 h, 10 µM rises from 95.3% to 117%.

Going from `O=C(NCC1CCCCC1)N1CCN(c2ccc(F)cc2)CC1` [CBK156397] to `CNC(=O)c1ccc(-c2ccc(N3CCOCC3)cc2)nc1NCC1CC1` [CBK106305], the viability at 28.5 h, 10 µM rises from 86.9% to 102%.

Going from `CSCCC(=O)NC1CCCc2nc(N3CCC(CO)CC3)ncc21` (centres unmarked) [CBK306782] to `Cc1nc(N)nc(NCC2CCN(C3CC3)C2)c1Cl` (centres unmarked) [CBK306575], the viability at 28.5 h, 10 µM falls from 91.3% to 85.9%.

Going from `CC(C)(C)c1ccc(C(=O)NNC(=O)C(=O)Nc2ccccc2)cc1` [CBK261701] to `CC(=O)Nc1cccc(C(=O)OCC(=O)c2cccs2)c1` [CBK306040], the viability at 28.5 h, 10 µM rises from 83.1% to 105%.

Compared with `O=S(=O)(Nc1nnn[nH]1)c1ccc(Cl)c(Cl)c1` [CBK062387], `CC(=O)Nc1ccc(S(=O)(=O)NCCC#N)cc1Cl` [CBK044272] is lower in viability at 28.5 h, 10 µM: 106% for the first, 95.2% for the second.

Compared with `CCn1ncc(CN2C3CCC2CC(O)(c2ccc(F)cc2)C3)c1C` (centres unmarked) [CBK282973], `OCC[C@H]1CN2CCCC2CN1Cc1cccn1-c1cccc(F)c1` (some centres unmarked) [CBK282985] is lower in viability at 28.5 h, 10 µM: 100% for the first, 86.1% for the second.

Compared with `O=C(Nc1ccc(N2CCNCC2)nc1)C1(c2ccccc2)CCCCC1` [CBK028269T], `O=C1NC2(CCN(C(=O)c3cccs3)CC2)Oc2ccccc21` [CBK283998] is lower in viability at 28.5 h, 10 µM: 97.8% for the first, 87.3% for the second.

First: COC(=O)c1c(C)[nH]c(C(=O)CSc2ncnc3sc(C)c(-c4ccccc4)c23)c1C [CBK266004]
Second: Cc1oc(-c2ccccc2)nc1CCOc1ccc(NC(=O)c2ccc(Cl)cc2Cl)c(C(=O)O)c1 [CBK000168D]
The viability at 28.5 h, 10 µM of the first is higher: 99.5% for the first, 88.6% for the second.

`COc1ccc(C(C)C)cc1-c1cncc(N[C@H](C)c2ccccc2)n1` [CBK065535] and `Cc1c(NC(=O)c2ccccc2Cl)c(=O)n(-c2ccccc2)n1C` [CBK088068] are the same in viability at 28.5 h, 10 µM: 105% for the first, 105% for the second.

First: COc1ccc2cc3c(nc2c1)Sc1nncn1N=C3 [CBK021248]
Second: O=S(=O)(c1ccc2ccccc2c1)c1cnns1 [CBK001887]
The viability at 28.5 h, 10 µM of the first is higher: 100% for the first, 97.7% for the second.

Going from `Cc1nc2c(c(=O)[nH]1)CCN(Cc1[nH]c3ccccc3c1C)C2` [CBK283995] to `Cc1cc(C)nc(SCc2nc3ccc([N+](=O)[O-])cc3[nH]2)n1` [CBK264634], the viability at 28.5 h, 10 µM falls from 93% to 85.3%.

First: O=S(=O)(Nc1cccc2cc[nH]c12)c1ccc(Br)cc1C(F)(F)F [CBK159519]
Second: CC(C)C(=O)Nc1cccc(NC(=O)COc2ccc(Br)cc2)c1 [CBK265211]
The viability at 28.5 h, 10 µM of the first is lower: 88.5% for the first, 94% for the second.

Going from `CCc1nnc(NC(=O)CCc2ccccc2)s1` [CBK057943] to `Cc1cc(C)cc(NC(=O)Cc2cc(=O)[nH]c(SCc3ccccc3)n2)c1` [CBK287842], the viability at 28.5 h, 10 µM rises from 86.1% to 112%.

First: O=C(c1c[nH]c(=O)c(Cl)c1)N1CCCCC1CN1CCOCC1 (centres unmarked) [CBK304416]
Second: NC(=O)NC(CC(=O)N1CCOC2CCCCC21)c1cccc(Br)c1 (centres unmarked) [CBK306299]
The viability at 28.5 h, 10 µM of the first is higher: 119% for the first, 93.8% for the second.

First: O=C(c1ccc2c(c1)CCO2)N1CCC(S(=O)(=O)c2ccc(-c3ccccc3)cc2)CC1 [CBK131957]
Second: O=C(NCCCN1CCOCC1)c1cnn2c(-c3ccccc3)cc(-c3ccccc3)nc12 [CBK263046]
The viability at 28.5 h, 10 µM of the first is higher: 109% for the first, 79.9% for the second.

First: Cc1ccc2oc(-c3cccc(NC(=O)c4ccc(-c5ccc([N+](=O)[O-])cc5)o4)c3C)nc2c1 [CBK263437]
Second: COc1ccc(-c2cc(CC3(NC(C)=O)COC3)no2)cc1 [CBK289428]
The viability at 28.5 h, 10 µM of the first is higher: 103% for the first, 94.5% for the second.

Going from `CN(C)c1ccc(NC(=O)CN2C(=O)[C@H]3CCCN3c3ncccc32)cc1` [CBK286202] to `CN(C)CCC(O)(c1ccccc1)c1cc2c(cc1Cl)CCC2` (centres unmarked) [CBK010000C], the viability at 28.5 h, 10 µM falls from 118% to 99.5%.

First: O=C(NC1CCCC1)c1ccc2c(c1)OCO2 [CBK002177]
Second: N#Cc1sc(NC(=O)c2cccc(Br)c2)nc1Cl [CBK017468]
The viability at 28.5 h, 10 µM of the first is higher: 81% for the first, 45.4% for the second.

Going from `CCCN1C(=S)N(CCO)C(=O)/C1=C/C=C1/Oc2ccccc2N1CCC(=O)O` [CBK261400] to `CCSC1=C(C#N)C(=O)NC(c2ccccc2O)S1` (centres unmarked) [CBK293971], the viability at 28.5 h, 10 µM rises from 88.6% to 109%.

Compared with `CCN(CC)C(=O)CNS(=O)(=O)c1ccc(OC)c(OC)c1` [CBK034499], `CN(CC(F)(F)F)C(=O)CCc1nc(-c2cccs2)no1` [CBK282215] is lower in viability at 28.5 h, 10 µM: 103% for the first, 89.8% for the second.

First: O=C(CC(C(=O)O)n1cccn1)c1ccc(Br)cc1 (centres unmarked) [CBK269541]
Second: Cc1csc(C(Cc2ccsc2)NC(=O)CCn2cccn2)n1 (centres unmarked) [CBK285149]
The viability at 28.5 h, 10 µM of the first is lower: 90.8% for the first, 93.7% for the second.

Compared with `OCCN1CCN(C(S)=NC2CCCC2)CC1` [CBK265886], `CNC(=S)NNC(=O)CN1CCSCC1` [CBK262444] is lower in viability at 28.5 h, 10 µM: 91.6% for the first, 88.3% for the second.

Going from `COc1c(C(=O)O)cc(C)c2c1CCC2C` (centres unmarked) [CBK013617] to `Cc1cc(OC(C)C(=O)N(Cc2cccs2)C2CCS(=O)(=O)C2)cc(C)c1Cl` (centres unmarked) [CBK293962], the viability at 28.5 h, 10 µM falls from 101% to 84.3%.

First: O=C(O)c1cc(NC(=O)c2ccco2)cc(NC(=O)c2ccco2)c1 [CBK263388]
Second: CC(C)Cn1c(CN2CCOCC2)nc2c1c(=O)n(C)c(=O)n2C [CBK305913]
The viability at 28.5 h, 10 µM of the first is higher: 91.8% for the first, 91.3% for the second.

Same assay, conditions: human, hela cells, % viability, bulk resorufin, single well

First: O=C(Cn1cc(/C=C2\C(=O)NC(=S)N(c3cccc(F)c3)C2=O)c2ccccc21)Nc1ccccc1 [CBK265152]
Second: CN(C)CCCN/C=C1/C(=O)NC(=S)N(c2ccc(Cl)cc2)C1=O [CBK261828]
The viability at 28.5 h, 10 µM of the first is higher: 106% for the first, 91.6% for the second.

Compound `CCOC(=O)C1(c2ccccc2)CCN(C(=O)c2ccco2)CC1` [CBK132199] has a viability at 28.5 h, 10 µM of 86.2%.
